Results as given in patent publication US20030139362A1, “Methods of treating cognitive decline disease conditions with androgens” (priority 2000, published 2003).

What was measured:
female apoE4 mice = conditions: for probe trial (platform removed): time searching in the target quadrant: female apoE4 mice, P<0.05, Tukey-Kramer test, placebo-treated mice did not
Excerpt: We tested whether administration of androgens might be successful for improving cognition in apoE4 female mice.

women = conditions: literature: Sherwin 1988 (surgically menopausal women); Yaffe 2000 (women with apoE4); cited from earlier work
[1] = plasma hormone levels by radioimmunoassay (RIA); format: in vivo; conditions: testosterone-treated female mice, subcutaneous Silastic capsule, after the behavioral testing
[2] = six-month-old female apoE4 mice, subcutaneous Silastic capsule, tested eight days after implantation

Row | Molecule | probe trial (platform removed): time searching in the target quadrant (female apoE4 mice) | memory retention in the water maze (female apoE4 mice; [2]) | cognition / cognitive function in women (women) | plasma testosterone levels [1] [ng/mL] | learning in the water maze (hidden platform sessions) (female apoE4 mice; six-month-old female apoE4 mice, subcutaneous Silastic capsule, tested eight days after implantation, P<0.05 vs placebo)
1 | C[C@]12CCC(=O)C[C@@H]1CC[C@@H]1[C@@H]2CC[C@]2(C)[C@@H](O)CC[C@@H]12 [dihydrotestosterone] | spent significantly more time searching in the target quadrant than in any of the other quadrants | improved memory retention |  |  | 
2 | Estrogen |  |  | failed to preserve cognitive function in women with apoE4 |  | 
3 | C[C@]12CC[C@H]3[C@@H](CCC4=CC(=O)CC[C@@]43C)[C@@H]1CC[C@@H]2O [testosterone] | spent significantly more time searching in the target quadrant than in any of the other quadrants | improved memory retention | improved cognition in surgically menopausal women | 5.61 ± 0.74 | improved learning
